This passage reports IC50 and inhibition results from patent US8445509B2, “Fused heterocyclic derivatives and use thereof” (Takeda Pharmaceutical Company Limited, priority 2008, dated 2013).

In experiment [1] the target is T1, VEGFR2 intracellular domain protein (Homo sapiens, UniProt P35968).
T1 construct: made in house; host or cells: SF-21 insect cells, recombinant baculovirus BAC-VEGFR2
Description: Vascular endothelial growth factor receptor 2 (VEGFR2) kinase inhibitory activity (AlphaScreen). Format: biochemical. A digest of the protocol: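 FLAG-purified VEGFR2 intracellular domain from baculovirus-infected Sf21 cells was added as a 50 ng/mL solution with 250 ng/mL biotin-poly-Glu:Tyr (4:1) to compound in 50 mM Tris-HCl pH 7.5, 5 mM MgCl2, 5 mM MnCl2, 2 mM DTT, 0.01% Tween-20.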

Experiment [2] concerns Human umbilical vein-derived vascular endothelial cells (HUVEC). Description: Vascular endothelial cell proliferation inhibitory test (VEGF-stimulated HUVEC). To be noted: 120 h, 5 days of culture with VEGF. Type of experiment: cell-based. A digest of the protocol:
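HUVEC (3000 cells/well) in medium with 3% FBS, cultured overnight, then given test substance plus VEGF (120 ng/mL in the added medium). After 5 days at 37 °C, Cell Counting Kit-8 was applied for 2-3 h and A450 read. IC50 relative to no-compound wells, by logistic nonlinear least-squares fit.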

Experiment [3] deals with T2, c-Met intracellular domain protein (Homo sapiens, UniProt P08581).
T2 construct: 2.5 ng/ml of c-Met intracellular domain protein (Millipore); purchased Millipore
T2 sequence (P08581 956-1390 limits assumed): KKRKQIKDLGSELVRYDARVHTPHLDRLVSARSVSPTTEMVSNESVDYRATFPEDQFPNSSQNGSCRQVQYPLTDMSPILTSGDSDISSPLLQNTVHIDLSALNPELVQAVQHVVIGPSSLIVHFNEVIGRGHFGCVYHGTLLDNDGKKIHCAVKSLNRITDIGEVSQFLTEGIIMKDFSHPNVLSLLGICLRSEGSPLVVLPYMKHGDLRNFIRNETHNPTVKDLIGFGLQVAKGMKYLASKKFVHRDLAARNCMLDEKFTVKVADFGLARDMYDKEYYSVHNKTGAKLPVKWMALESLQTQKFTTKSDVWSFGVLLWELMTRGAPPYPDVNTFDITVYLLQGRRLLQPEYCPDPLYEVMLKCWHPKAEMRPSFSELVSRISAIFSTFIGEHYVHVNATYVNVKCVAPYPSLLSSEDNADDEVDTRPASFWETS
Description: Hepatocyte growth factor receptor (c-Met) kinase inhibitory activity (AlphaScreen). The following applies: for inhibition at 1 µM: 1 μM test compound, read-out: inhibitory rate (%) at 1 μM. Type of experiment: biochemical. A digest of the protocol: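 Compound in DMSO was diluted into 50 mM Tris-HCl pH 7.5, 5 mM MgCl2, 5 mM MnCl2, 2 mM DTT, 0.01% Tween-20. Enzyme (2.5 ng/ml) and biotin-poly-Glu:Tyr (4:1) (250 ng/mL) were added as a solution at these concentrations.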
For orientation: In Alpha technology, singlet oxygen from a donor bead excites a nearby acceptor bead.

For experiment [4], the target named is T3, Tie2 intracellular domain protein (Homo sapiens, UniProt Q02763).
T3 construct: 50 ng/mL of Tie2 intracellular domain protein (Millipore); purchased Millipore
T3 sequence (Q02763 770-1124 limits assumed): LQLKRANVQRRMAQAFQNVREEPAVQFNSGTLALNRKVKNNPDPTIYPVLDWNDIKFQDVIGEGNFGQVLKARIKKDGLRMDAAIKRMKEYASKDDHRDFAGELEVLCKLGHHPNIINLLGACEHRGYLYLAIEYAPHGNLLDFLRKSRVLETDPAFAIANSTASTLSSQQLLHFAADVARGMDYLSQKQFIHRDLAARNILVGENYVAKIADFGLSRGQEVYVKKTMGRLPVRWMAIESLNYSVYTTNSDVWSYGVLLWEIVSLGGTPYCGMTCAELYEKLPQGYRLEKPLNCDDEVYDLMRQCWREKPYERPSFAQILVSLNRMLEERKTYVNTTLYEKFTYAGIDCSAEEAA
Description: TIE2 kinase inhibitory activity (AlphaScreen). Format: biochemical.

Where only a bound is given, the exact number is not on record here.

T1 sequence (P35968 786-1356 limits assumed): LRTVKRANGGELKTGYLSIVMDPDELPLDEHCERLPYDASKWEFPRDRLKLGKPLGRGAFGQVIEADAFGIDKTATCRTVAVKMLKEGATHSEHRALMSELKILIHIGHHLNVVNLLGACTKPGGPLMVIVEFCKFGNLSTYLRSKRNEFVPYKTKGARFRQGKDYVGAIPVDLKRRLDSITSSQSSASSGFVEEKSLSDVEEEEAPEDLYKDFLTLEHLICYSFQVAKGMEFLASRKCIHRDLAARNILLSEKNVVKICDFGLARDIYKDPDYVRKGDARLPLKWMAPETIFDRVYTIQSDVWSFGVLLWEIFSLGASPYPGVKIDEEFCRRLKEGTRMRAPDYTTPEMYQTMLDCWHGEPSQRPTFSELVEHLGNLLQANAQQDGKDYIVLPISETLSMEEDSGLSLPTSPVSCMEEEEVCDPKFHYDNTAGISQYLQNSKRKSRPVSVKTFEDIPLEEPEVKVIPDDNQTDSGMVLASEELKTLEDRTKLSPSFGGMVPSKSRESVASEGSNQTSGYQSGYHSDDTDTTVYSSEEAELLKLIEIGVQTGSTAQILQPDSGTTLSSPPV

For the molecule `Cc1ccc(C(=O)Nc2ccc(Oc3ccc4nc(NC(=O)C5CC5)cn4c3)cc2F)[n+]([O-])c1-c1ccc(F)cc1` [Example 84, N-[4-({2-[(cyclopropylcarbonyl)amino]imidazo[1,2-a]pyridin-6-yl}oxy)-2-fluorophenyl]-6-(4-fluorophenyl)-5-methylpyridine-2-carboxamide 1-oxide], the IC50 – broadly, the point on the concentration scale where inhibition reaches its midpoint – in experiment [1] is at most 1 µM; in experiment [2] it was at most 2 µM; in experiment [3], at most 1 µM; in experiment [4], at most 1 µM. Also, the inhibition at 1 µM in experiment [3] was at least 80%.

For the molecule `Cc1ccc(C(=O)Nc2ccc(Oc3ccc4nc(NC(=O)C5CC5)cn4c3)c(F)c2)[n+]([O-])c1-c1cccc(F)c1` [Example 93, N-[4-({2-[(cyclopropylcarbonyl)amino]imidazo[1,2-a]pyridin-6-yl}oxy)-3-fluorophenyl]-6-(3-fluorophenyl)-5-methylpyridine-2-carboxamide 1-oxide], the IC50 in experiment [1] was at most 1 µM; in experiment [2], at most 2 µM; in experiment [3], at most 1 µM; in experiment [4] it was at most 1 µM. In experiment [3], the inhibition at 1 µM is at least 80%.
